These results are taken from PMC7562898, “Homogeneous single-label cGMP detection platform for the functional study of nitric oxide-sensitive (soluble) guanylyl cyclases and cGMP-specific phosphodiesterases” (Scientific Reports, 2020).

Like-named read-outs stand apart in the source and are kept apart here.

The target in assay [1] is T1, sGC (Homo sapiens, UniProt Q02108+Q02153).
T1 construct: Full-length sGC was purified from Sf9 cells as described previously; made in house; host or cells: Sf9 cells
T1 sequence (Q02108 1-690): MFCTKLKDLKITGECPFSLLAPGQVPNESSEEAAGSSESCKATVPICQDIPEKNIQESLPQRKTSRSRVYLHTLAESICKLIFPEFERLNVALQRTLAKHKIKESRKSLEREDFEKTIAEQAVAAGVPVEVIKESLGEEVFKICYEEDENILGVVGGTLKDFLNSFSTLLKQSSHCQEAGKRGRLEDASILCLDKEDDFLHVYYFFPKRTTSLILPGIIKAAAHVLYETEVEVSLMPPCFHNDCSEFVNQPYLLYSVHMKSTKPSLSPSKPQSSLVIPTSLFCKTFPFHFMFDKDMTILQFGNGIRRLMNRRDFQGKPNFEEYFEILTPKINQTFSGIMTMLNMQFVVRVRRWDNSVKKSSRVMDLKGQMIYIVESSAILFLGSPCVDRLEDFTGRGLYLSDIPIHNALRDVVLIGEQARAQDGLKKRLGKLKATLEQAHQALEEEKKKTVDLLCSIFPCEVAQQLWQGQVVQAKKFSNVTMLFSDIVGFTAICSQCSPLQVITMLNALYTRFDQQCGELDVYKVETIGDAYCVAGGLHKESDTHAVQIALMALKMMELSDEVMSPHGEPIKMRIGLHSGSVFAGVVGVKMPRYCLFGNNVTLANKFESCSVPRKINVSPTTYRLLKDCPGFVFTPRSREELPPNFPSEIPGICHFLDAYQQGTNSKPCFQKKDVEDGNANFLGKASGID
T1 sequence (Q02153 1-619): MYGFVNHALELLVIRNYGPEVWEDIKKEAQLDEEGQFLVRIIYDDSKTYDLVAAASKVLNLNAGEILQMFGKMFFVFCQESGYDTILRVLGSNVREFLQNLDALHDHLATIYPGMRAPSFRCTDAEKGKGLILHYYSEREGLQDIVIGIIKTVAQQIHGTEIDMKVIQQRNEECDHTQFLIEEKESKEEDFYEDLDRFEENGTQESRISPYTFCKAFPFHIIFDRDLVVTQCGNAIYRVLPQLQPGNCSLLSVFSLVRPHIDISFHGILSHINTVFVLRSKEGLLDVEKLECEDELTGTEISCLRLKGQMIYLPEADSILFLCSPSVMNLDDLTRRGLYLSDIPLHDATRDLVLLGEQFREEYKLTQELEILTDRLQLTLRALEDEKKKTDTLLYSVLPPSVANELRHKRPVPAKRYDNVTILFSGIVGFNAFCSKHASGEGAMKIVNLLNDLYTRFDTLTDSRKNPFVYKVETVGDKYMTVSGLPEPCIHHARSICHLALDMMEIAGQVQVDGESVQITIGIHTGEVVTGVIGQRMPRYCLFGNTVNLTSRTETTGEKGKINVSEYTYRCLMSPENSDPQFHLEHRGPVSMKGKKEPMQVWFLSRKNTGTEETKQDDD
Kind of assay: sGC activity assay, endpoint QRET cGMP detection. Type of assay: biochemical. The conditions noted are these: for EC50: 2 ng sGC, 0.5 mM GTP, 30 min at 37 °C, read-out: EC50 of concentration dependent sGC activation; for effect on sGC activity at fixed saturating concentration: 10 µM NS2028, 10 µM DEA-NO; for fold increase for cGMP compared to untreated sGC: 100 µM gemfibrozil or 10 µM DEA-NO. On the procedure: Optimized cGMP detection platform was applied to all enzymatic assays. For non-stimulated conditions, purified sGC enzyme (0.04–276 ng/well) was incubated with or without 0.5 mM GTP in the assay buffer 2 for 10 to 45 min at 37 °C in 5 µL volume. The reaction was stopped by adding 5 µL of detection solution (0.4 µg/ml cGMP antibody, 5 nM Eu(III)-cGMP, and 2.2 µM MT2) containing EDTA. For NO stimulated sGC activity, the same reactions were performed in the presence of 10 or 100 µM DEA-NO added with GTP. DEA-NO was always prepared from a 100 mM stock solution in 10 mM NaOH, which was stored at − 80 °C. TRF-signals were always monitored multiple times between 5 to 90 min to determine the TRF-signal stability.
In assays where dose-dependent effect of three sGC activators, DEA-NO, YC-1, and riociguat, were tested, the compounds (0–100 µM) were incubated with 2 ng sGC. Reactions were initiated by adding 0.5 mM GTP to reach 5 µL volume and incubated for 30 min at 37 °C. Reactions were stopped by adding 5 µL of detection solution and TRF-signals were recorded. To evaluate the linearity of the cGMP production by sGC, 3 or 12 ng of sGC were used for resting conditions and 0.5 ng for 100 µM DEA-NO activated sGC. Assays were performed in separate plates and reactions were stopped at indicated time points (5–60 min), before TRF-signal monitoring as above.
For assays containing fixed concentration of sGC regulators, 5 ng of sGC was incubated with one, or the indicated combination of following molecules: 10 µM NS2028, 100 nM BAY58-2667, 100 µM gemfibrozil, 10 µM BAY41-2272, 100 µM Cbi, 10 µM DEA-NO or SNP with glutathione (100 µM each). 5 µL reactions containing 0.5 mM GTP were incubated for 10 min at 37 °C and stopped by adding the detection components. TRF-signals were recorded as described above.
Cell lysate interferences were evaluated in an endpoint assay with different amounts of sGC (0.008–166.7 ng) and 0.07 or 0.14 mg/ml of COS7 cell lysate. sGC/lysate mixture was supplemented with 0.5 mM GTP in the presence or absence of 10 µM DEA-NO, and 5 µL reaction was incubated for 10 min at 37 °C. Detection components were thereafter added and TRF-signals were monitored as above.
Reproducibility and HTS compatibility were determined by running Z’-factor assay using 24 sGC reactions with or without activity modulation in three consecutive days. Assays were performed with fixed sGC concentration (5 ng/well) and sGC activation was performed using gemfibrozil (100 µM) or DEA NONOate (10 µM). All assays were initiated by the addition of 0.5 mM GTP to obtain a final 5 µL reaction volume, 37 °C for 10 min. Detection solution was added and TRF-signals were monitored as previously. Z’-factors were calculated using sGC basal activity as negative and activated reactions (NO or gemfibrozil) as positive controls.
In parallel to all assays, changes in TRF-signal in response to different concentrations of exogenously added cGMP were recorded to generate a cGMP standard curve. The cGMP standard was created using 1:3 dilution series to maximize the linear part of the standard, which was used to calculate the amount of cGMP generated by sGC during the reaction. Only at the linear area, the TRF-signal relation to cGMP concentration can be determined.

In assay [2] the test system is PDEs in mouse brain homogenate. The assay is described as follows: cGMP hydrolysis (PDE activity) in mouse brain homogenate. Type of assay: biochemical. The settings on record: 0.1 mg/ml homogenate, 50 µM cGMP, 15 min at 37 °C, 3 µM MT2; read-out: apparent IC50 of cGMP hydrolysis in mouse brain homogenate. The procedure: PDE inhibitors with varying specificity profile, BAY73-6691, sildenafil, and IBMX (0–500 µM), were assayed in a high-speed supernatants of mouse brain homogenates. Reactions were performed in 5 µL volume in the presence of 0.1 mg/ml of homogenate and 50 µM cGMP. After 15 min incubation at 37 °C, detection solution (0.4 µg/ml cGMP antibody, 5 nM Eu(III)-cGMP, and 3.0 µM MT2) was added and TRF-signals were recorded.

For assay [3], the system named is monoclonal cGMP-specific antibody. The assay is described as follows: Homogeneous competitive QRET cGMP detection with cGMP-specific antibody. The conditions noted are these: for recognition of the nucleotide by the antibody: nucleotide titration, data not shown. Type of assay: binding. The procedure: All biochemical assays were performed in a 10 µL final volume using triplicate reactions and three individual experiments unless otherwise indicated. The non-enzymatic and real-time cGMP assays were performed in assay buffer 1 (20 mM HEPES, pH 7.5, 1 mM MgCl2, 0.005% γ-globulins, 0.01% Triton X-100), enzymatic end-point assays in assay buffer 2 (assay buffer 1 without 0.01% Triton X-100), and detection components ([…], antibody, and MT2) were added in the stop buffer (assay buffer 1 supplemented with 10 mM EDTA instead of 1 mM MgCl2). In all buffers, sGMP was equally detected. Buffers for end-point assay were optimized to avoid the used of Triton X-100 during the enzymatic sGC reaction, avoiding the progressive loss of heme, and by using the EDTA in stop buffer to chelate the enzyme essential MgCl2.
After initial assays, cGMP detection protocol was tested in cGMP titration with two antibody (2 ng/well and 4 ng/well) and two Eu(III)-cGMP (1 nM and 5 nM) concentrations. Titrated cGMP (0–250 µM) was added in 5 µL volume and detection solution containing Eu(III)-cGMP, cGMP antibody, and MT2 (1.2 µM or 2.2 µM) in 5 µL volume. Similar titrations were performed with other nucleotides (cAMP, GTP, ATP, ADP, and GMP). cGMP was also titrated in the presence of 0.5 mM GTP. In all of these assays, background controls were performed with six repeats and TRF-signals were monitored multiple times between 5 to 90 min to determine the TRF-signal stability.
Assays were performed with Eu(III)-cGMP concentration dependent individually fixed MT2 (1.2–3.2 µM) quencher concentration. TRF-signals were measured and the Eu(III)-cGMP equilibrium dissociation constant (Kd) for the cGMP-specific antibody was determined using linearized Cheng-Prusoff Equation[59].

Assay [4] concerns the target T1, sGC. Further details: method as in PMID 26777256. The conditions noted are these: cited from earlier work.
The subject of a further assay is PDE5A. On the set-up: method as in PMID 10574925. The settings on record: read-out: Km of PDE5A for cGMP; cited from earlier work.

With `OCc1ccc(-c2nn(Cc3ccccc3)c3ccccc23)o1` [YC-1, 3-(5′-hydroxymethyl-2′-furyl)-1-benzyl indazole], the EC50 on sGC [1] was 5.7 ± 1 µM.

For the compound `O=c1onc2n1-c1cc(Br)ccc1OC2` [NS2028, 8-bromo-4H-2,5-dioxa-3,9b-diaza-cyclopenta[a]naphthalen-1-one], the “effect on sGC activity at fixed saturating concentration” value on sGC [1] (5 ng sGC, 10 min at 37 °C) is recorded as “no significant effect”. Besides, the “effect on sGC activation when assayed together with BAY58-2667 or gemfibrozil” value at sGC [1] (10 µM NS2028 with 100 nM BAY58-2667 or 100 µM gemfibrozil, 5 ng sGC, 10 min at 37 °C) is recorded as “increased the activation”.

As to `CCCc1nn(C)c2c(=O)[nH]c(-c3cc(S(=O)(=O)N4CCN(C)CC4)ccc3OCC)nc12` [sildenafil], in assay [2], the IC50 amounted to 45.2 ± 6.8 µM.

Consider `Nc1ncnc2c1ncn2[C@@H]1O[C@@H]2COP(=O)(O)O[C@H]2[C@H]1O` [cAMP, cyclic adenosine monophosphate], for which, in assay [3], the “recognition of the nucleotide by the antibody” value (from here on “recognition of the nucleotide”) was “could not be recognized by the antibody”.

Regarding `Nc1ncnc2c1ncn2[C@@H]1O[C@H](COP(=O)(O)OP(=O)(O)OP(=O)(O)O)[C@@H](O)[C@H]1O` [ATP], in assay [3], the “recognition of the nucleotide” value is given as “could not be recognized by the antibody”.

For `CC(C)Cn1c(=O)n(C)c(=O)c2[nH]cnc21` [IBMX, 3-isobutyl-1-methylxanthine], the IC50 in assay [2] came to 9.9 ± 0.6 µM.

For `COC(=O)N(C)c1c(N)nc(-c2nn(Cc3ccccc3F)c3ncccc23)nc1N` [riociguat], the EC50 on sGC [1] was 0.26 ± 0.1 µM.

As for `Nc1nc2c(ncn2[C@@H]2O[C@H](COP(=O)(O)OP(=O)(O)OP(=O)(O)O)[C@@H](O)[C@H]2O)c(=O)[nH]1` [GTP, guanosine triphosphate], the Km on sGC [4] (NO-activated sGC, read-out: Km for GTP, NO-activated sGC) is under 75 µM; at sGC [4] (resting sGC, read-out: Km for GTP, resting sGC) it was about 220 µM. In assay [3], the “specificity of the antibody for cGMP over the nucleotide” value was 1000 fold.

`C[C@H](Cc1nc2c(cnn2-c2ccccc2Cl)c(=O)[nH]1)C(F)(F)F` [BAY73-6691]: the IC50 in assay [2] is 81.3 ± 4.8 µM.

On to `Nc1ncnc2c1ncn2[C@@H]1O[C@H](COP(=O)(O)OP(=O)(O)O)[C@@H](O)[C@H]1O` [ADP], for which the “recognition of the nucleotide” value in assay [3] is recorded as “could not be recognized by the antibody”.

As to `Cc1ccc(C)c(OCCCC(C)(C)C(=O)O)c1` [gemfibrozil], the “fold increase for cGMP compared to untreated sGC” value at sGC [1] (5 ng sGC/well, 10 min at 37 °C) was “approximately 20 fold”.

`Nc1nc2c(ncn2[C@@H]2O[C@@H]3COP(=O)(O)O[C@H]3[C@H]2O)c(=O)[nH]1` [cGMP, Cyclic 3´,5´-guanosine monophosphate]: the Km in the assay on PDE5A was about 2 µM. Moreover, the EC50 was 0.72 ± 0.07 µM in assay [3] (1 nM Eu(III)-cGMP and 2 ng of antibody/well, read-out: EC50 value of cGMP titration (displacement of Eu(III)-cGMP from antibody)); 1.8 ± 0.22 µM in assay [3] (5 nM Eu(III)-cGMP and 4 ng of antibody/well, read-out: EC50 of cGMP titration (displacement of Eu(III)-cGMP from antibody)).

For the compound `CCN(CC)/[N+]([O-])=N/O.CCNCC` [DEA-NO, diethylamine NONOate], the EC50 at sGC [1] worked out at 0.93 ± 0.1 µM. Further, at sGC [1] (5 ng sGC, 10 min at 37 °C), the “effect on sGC activity at fixed saturating concentration” value is “largest increase in sGC activity”. The “NO-stimulated sGC specific activity in the presence of COS7 lysate” value on sGC [1] (10 µM DEA-NO, 5 ng sGC/well, 10 min at 37 °C, 0.14 mg/ml COS7 lysate) came out at 19.3 ± 4.2 µmol/mg/min. Besides, on sGC [1] (10 µM DEA-NO, 5 ng sGC/well, 10 min at 37 °C, buffer), the “NO-stimulated sGC specific activity” value was 4.8 ± 1.0 µmol/min/mg. For the same compound, at sGC [1] (5 ng sGC/well, 10 min at 37 °C), the “fold increase for cGMP compared to untreated sGC” value is about 50 fold.
